{
  "source": "patent US20120270770A1",
  "about": "“Anti-angiogenic peptides and their uses” (priority 2010, published 2012)",
  "key": {"[1]": {"test_system": "ulcerative colitis / IBD and subsequent colon cancer in IL-10 deficient mice", "assay": "Murine model of ulcerative colitis: IL-10 deficient mice", "assay_type": "in vivo, mouse", "description": "An IL-10 deficient strain of mouse was used in the study to determine the ability of JC15-10N (a novel anti-inflammatory molecule) to limit their developing IBD and subsequent colon cancer.\nThe Wild Type and IL-10 deficient mouse strains used in this study was obtained from Jackson Laboratories and are designated as:\nThe following groups of animals comprised the present experiment:\nControls: • 1. Controls (129 SvEv 129^−/− untreated) • 2. Controls (129 SvEv 129^−/− Sham/Saline Only) • 3. 129 SvEv Wild-type Controls (untreated) • 4. 129 SvEv Wild-type (Sham/Saline Only)\nTreatments with JC15-10N: • 1. Pre-inflammatory (129 SvEv 129^−/−-Prevention-1 injection/week) • 2. Frank inflammatory (129 SvEv 129^−/−-Treatment-1 injection/week) • 3. Pre-inflammatory (129 SvEv 129^−/−-Prevention-1* injections/week) • 4. Frank-inflammatory (129 SvEv 129^−/−-Treatment-1* injections/week) • 5. 129 SvEv Wild-type (Prevention-1 injection/week) • 6. 129 SvEv Wild-type (Treatment-1 injection/week) • 7. 129 SvEv Wild-type (Prevention-1* injections/week) • 8. 129 SvEv Wild-type (Treatment-1* injections/week) • 9 animals/group X 12 groups (including controls)=108 mice×2 repetitions=216 mice; 1 injection/week=0.5 mg/kg subQ and 1* injection/week=5.0 mg/kg subQ injection/week. • In order to encourage inflammation, prior to the start of the experiment, pathogenic murine strains of E. coli and E. faecalis bacteria were administered to the mice in the appropriate treatment groups via oral and anal gavages, designated EC/EF.\nPre-inflammatory (4 wks.) and frank-inflammatory animals (6 wks.-8 wks) were treated with JC15-10N via subcutaneous injections every week for 14 weeks. The compound was diluted in saline to obtain treatment doses of 0.5 and 5.0 mg/kg of body weight respectively and was delivered subcutaneously using tuberculin needles. As controls, some animals were injected with saline only or remained uninjected during the course of the experiment. The procedure described by Hem and coworkers (Laboratory Animals Ltd. 1998. V 32. 364-368) was used to collect 100 micro-liters of blood from the lateral saphenous vein of all test animals once per week over the 14 weeks of peptide therapy. Blood serum was analyzed for changes in the levels of pro-inflammatory and anti-inflammatory cytokines over the 14-week treatment period. At the end of the 14-week treatment period animals were euthanized using a CO2 chamber and flushing the peritoneum with PBS will collect peritoneal lavage fluid. Colons were removed and flushed separately with PBS. Cytokine levels in the peritoneal lavage fluids and colonic fluids of all animals were compared. Following colonic flushes; colons were splayed and examined for inflammatory lesions. Lesions were excised with scissors and the remainder of the colon rolled into gut rolls. […]"}, "[2]": {"test_system": "arthritis (calcification of joints)", "assay": "Treatment of a patient with arthritis", "assay_type": "in vivo, human", "conditions": "one patient, subcutaneous 10 mg once a week for one month, then once a month", "procedure": "A patient with arthritis was treated by subcutaneous injection of 10 mg once a week for one month and then once a month for maintenance doses. A visible indication of arthritis is calcification of joints."}, "[3]": {"conditions": "treated IL-10−/− mice vs control IL-10−/− receiving no treatment"}},
  "data": [
    {"sequence": "FAKKFAKKFK [JC15-10N]", "values": [
      {"measurement": "protective effect in IL-10 deficient mice", "setting": "[1]; 0.5 and 5.0 mg/kg subQ weekly, 14 weeks, preliminary data, 0.5 mg/kg somewhat better than 5.0 mg/kg", "value": "profound protective effect"},
      {"measurement": "colitis", "setting": "[1]; [3]", "value": "significant reduction"},
      {"measurement": "presence of advanced disease", "setting": "[1]; [3]", "value": "significant reduction"},
      {"measurement": "subsequent development of colon cancer", "setting": "[1]; [3]", "value": "significant reduction"},
      {"measurement": "calcification of the ankle joints (x-ray)", "setting": "[2]", "value": "disappeared"}
    ]}
  ]
}
